Experimental data: patent publication US20210177023A1, “COMPOUNDS FOR SWEETNESS ENHANCEMENT” (International Flavors & Fragrances Inc., priority 2019, published 2021)

Key:
Type in all cases: in vivo, human
[1] = Enhancement of sucrose sweetness (flavor profile of sucrose solution with added substance); conditions: sucrose solution (4%); for overall effect when used with sucrose (summary in text): over the levels tested; for effect observed in sucrose solution: compound 5 ppm
Procedure: A sucrose solution (4%) was prepared in water. Each of ligustrosidic acid and 2′-hydroxy ligustrosidic acid solutions of different concentrations was prepared in ethanol solution in water (50%). Ligustrosidic acid and 2′-hydroxy ligustrosidic acid were evaluated at 1 and 200 ppm, respectively. […] Solutions of Chaenomeles speciosa leave extract containing ligustrosidic acid (0.61%), 2′-hydroxy ligustrosidic acid (0.62%), verbascoside (0.69%) and isoverbascoside (0.21%) were prepared in ethanol solution in water (50%) to obtain a series of concentrations ranging from 1 to 1000 ppm. Solutions of sucrose (4%) and Luo Han Guo (120 ppm) were prepared as above (EXAMPLE II and III). In addition, solutions of fructose (3.4%), Reb A (GLG Life Tech Corporation, Canada) (90 ppm) and GSG (Glucosyl Steviol Glucosides, GLG Life Tech Corporation, Canada) (200 ppm) were also prepared in water. The sucrose solution (4%) with the addition of various amount of Chaenomeles speciosa leave extract was evaluated. […] Each of verbascoside and isoverbascoside solutions of different concentrations was prepared in ethanol solution in water (50%). Verbascoside and isoverbascoside were evaluated at 1 and 200 ppm, respectively.

[2] = Taste and smell of the compound alone
Procedure: A sucrose solution (4%) was prepared in water. Each of ligustrosidic acid and 2′-hydroxy ligustrosidic acid solutions of different concentrations was prepared in ethanol solution in water (50%). Ligustrosidic acid and 2′-hydroxy ligustrosidic acid were evaluated at 1 and 200 ppm, respectively. […] A sucrose solution (4%) was prepared in water. Each of verbascoside and isoverbascoside solutions of different concentrations was prepared in ethanol solution in water (50%). Verbascoside and isoverbascoside were evaluated at 1 and 200 ppm, respectively.

[3] = Enhancement of Luo Han Guo sweetness (flavor profile of Luo Han Guo solution with added substance); conditions: Luo Han Guo solution (120 ppm), over the levels tested
Procedure: A Luo Han Guo (Biovittoria Ltd., New Zealand) solution was prepared in water (120 ppm). Ligustrosidic acid and 2′-hydroxy ligustrosidic acid solutions were prepared as above (EXAMPLE II). The flavor profile of the Luo Han Guo solution with added ligustrosidic acid and 2′-hydroxy ligustrosidic acid is reported in the following: The effect of botanical extract such as Chaenomeles speciosa leave extract on sweetness was examined. Solutions of Chaenomeles speciosa leave extract containing ligustrosidic acid (0.61%), 2′-hydroxy ligustrosidic acid (0.62%), verbascoside (0.69%) and isoverbascoside (0.21%) were prepared in ethanol solution in water (50%) to obtain a series of concentrations ranging from 1 to 1000 ppm. Solutions of sucrose (4%) and Luo Han Guo (120 ppm) were prepared as above (EXAMPLE II and III). In addition, solutions of fructose (3.4%), Reb A (GLG Life Tech Corporation, Canada) (90 ppm) and GSG (Glucosyl Steviol Glucosides, GLG Life Tech Corporation, Canada) (200 ppm) were also prepared in water. The Luo Han Guo solution (120 ppm) with the addition of various amount of Chaenomeles speciosa leave extract was evaluated. The flavor profile is as follows: A Luo Han Guo (Biovittoria Ltd., New Zealand) solution was prepared in water (120 ppm). Verbascoside and isoverbascoside solutions were prepared as above (EXAMPLE XIII). The flavor profile of the Luo Han Guo solution with added verbascoside and isoverbascoside is reported in the following: […]

Compound	overall effect when used with sucrose (summary in text) [1]	taste and smell of the compound itself ([2]; evaluated at 1 ppm)	overall effect when used with Luo Han Guo (summary in text) [3]	effect observed in sucrose solution [1]	taste and smell of the compound itself ([2]; evaluated at 200 ppm)	other results
C[C@@H]1O[C@@H](O[C@@H]2[C@@H](O)[C@H](OCCc3ccc(O)c(O)c3)O[C@H](CO)[C@H]2OC(=O)/C=C/c2ccc(O)c(O)c2)[C@H](O)[C@H](O)[C@H]1O [Verbascoside, (E)-2-(3,4-dihydroxyphenyl)ethyl 3-O-(6-deoxy-α-L-mannopyranosyl)-4-[3-(3,4-dihydroxyphenyl)-2-propenoate]-β-D-Glucopyranoside]	particular effect in sweetness enhancement	devoid of taste and smell	particular effect in sweetness enhancement			
C/C=C1\C(OC2OC(CO)C(O)C(O)C2O)OC=C(C(=O)OCCc2ccc(O)c(O)c2)C1CC(=O)OCCc1ccc(O)c(O)c1 (stereo not shown) [multifloroside]				Some mouthfeel, slight drying or slightly fruity effect		
C/C=C1/[C@H](O[C@@H]2O[C@H](CO)[C@@H](O)[C@H](O)[C@H]2O)OC=C(C(=O)OC)[C@H]1CC(=O)OCCc1ccc(O)cc1 [ligustroside]				Some mouthfeel, slight drying or slightly fruity effect		
COC(=O)C1=COC(OC2OC(CO)C(O)C(O)C2O)C(=CC(=O)O)C1CC(=O)OCCc1ccc(O)cc1 (stereo in doubt) [Ligustrosidic Acid, [3-(carboxymethylene)-2-(β-D-glucopyranosyloxy)-3,4-dihydro-5-(methoxycarbonyl)]-2H-pyran-4-acetic acid-α-[2-(4-hydroxyphenyl)ethyl] ester]		devoid of taste and smell				overall effect when used with sucrose (summary in text) ([1]; listed as Ligustrosidic acid): particularly strong effect; overall effect when used with sucrose (summary in text) ([1]; listed as ligustrosidic acid): enhanced overall sweetness, body and mouthfeel; overall effect when used with Luo Han Guo (summary in text) ([3]; listed as Ligustrosidic acid): particularly strong effect; overall effect when used with Luo Han Guo (summary in text) ([3]; listed as ligustrosidic acid): enhanced overall sweetness, body and mouthfeel
2′-hydroxy ligustrosidic acid	strong effect in sweetness enhancement		strong effect in sweetness enhancement		devoid of taste and smell	
C[C@@H]1O[C@@H](O[C@@H]2[C@@H](O)[C@H](OCCc3ccc(O)c(O)c3)O[C@H](COC(=O)/C=C/c3ccc(O)c(O)c3)[C@H]2O)[C@H](O)[C@H](O)[C@H]1O [Isoverbascoside, isoverbascoside]	enhanced overall mouthfeel		enhanced overall mouthfeel and suppressed Luo Han Guo's lingering off-taste		devoid of taste and smell	
